We go through 13 compounds from ChEMBL document CHEMBL1148396, “Structure-activity relationships of N-acyl pyrroloquinolone PDE-5 inhibitors” (J Med Chem, 2004).

This test deals with cGMP-specific 3',5'-cyclic phosphodiesterase (Homo sapiens, UniProt O76074). The test can be described thus: Inhibitory activity against human Phosphodiesterase 5.
The term Ki denotes the dissociation constant of the complex between target and ligand, obtained from inhibition or displacement. Read a low Ki as tighter binding. In the case of `O=C(Cc1ccccc1)N1Cc2c(nc3ccccc3c2O)C1c1ccc2c(c1)OCO2` (stereo not drawn), the Ki came out at 12.5 nM.

`O=C(OCc1ccccc1)N1Cc2c(nc3ccccc3c2O)C1c1ccc2c(c1)OCO2` (stereo not drawn): the affinity corresponds to a Ki of 0.58 nM.

In the case of `O=C(/C=C/c1ccccc1)N1Cc2c(nc3ccccc3c2O)C1c1ccc2c(c1)OCO2` (stereo not drawn), the Ki worked out at 0.22 nM.

`O=S(=O)(Cc1ccccc1)N1Cc2c(nc3ccccc3c2O)C1c1ccc2c(c1)OCO2` (stereo not drawn): the affinity, expressed as Ki, was 113 nM.

Take `O=C(OCc1ccncc1)N1Cc2c(nc3ccccc3c2O)C1c1ccc2c(c1)OCO2` (stereo not drawn): the Ki was determined as 0.29 nM. Compared with the last compound, the Ki is about 390-fold lower.

`O=C(OCc1ccncc1)N1Cc2c(nc3ccccc3c2O)[C@@H]1c1ccc2c(c1)OCO2` returned a Ki of 3.48 nM.

Consider `O=S(=O)(/C=C/c1ccccc1)N1Cc2c(nc3ccccc3c2O)C1c1ccc2c(c1)OCO2` (stereo not drawn), for which the Ki worked out at 118 nM.

`CN(Cc1ccccc1)C(=O)N1Cc2c(nc3ccccc3c2O)C1c1ccc2c(c1)OCO2` (stereo not drawn) yielded a Ki of 11 nM.

On to `O=C(NCc1ccccc1)N1Cc2c(nc3ccccc3c2O)C1c1ccc2c(c1)OCO2` (stereo not drawn), for which the Ki is 1.06 nM.

`O=C(C#Cc1ccccc1)N1Cc2c(nc3ccccc3c2O)C1c1ccc2c(c1)OCO2` (stereo not drawn) gave a Ki of 0.35 nM.

Consider `O=C(CCc1ccccc1)N1Cc2c(nc3ccccc3c2O)C1c1ccc2c(c1)OCO2` (stereo not drawn), for which the affinity, expressed as Ki, was 4.53 nM. Against the preceding compound, the Ki is about 13-fold higher.

`O=C(OCc1ccncc1)N1Cc2c(nc3ccccc3c2O)[C@H]1c1ccc2c(c1)OCO2` showed a Ki of 0.23 nM.

As to `Oc1c2c(nc3ccccc13)C(c1ccc3c(c1)OCO3)N(C/C=C/c1ccccc1)C2` (stereo not drawn), the affinity corresponds to a Ki of 23.3 nM. This Ki lies about 100-fold higher than the previous one.
